In ChEMBL document CHEMBL1201862, “PubChem BioAssay data set” (2004):
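Method: 48-hour compound exposure of cells in 96-well plates, five concentrations, linear interpolation of endpoints. GI50 is the concentration that inhibits growth by half.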 Active and inactive are the calls of the source. Cut-off read from the data, not from the text of the source: active = GI50 up to about 1.1 µM and inactive = higher.

Experiments:
Assay in all cases: NCI tumour cell line growth inhibition, 48 h
BT-549 = system: BT-549
HCC 2998 = system: HCC 2998
HOP-92 = system: HOP-92
Hs-578T = system: Hs-578T
IGROV-1 = system: IGROV-1
KM12 = system: KM12
LOX IMVI = system: LOX IMVI
MDA-MB-231 = system: MDA-MB-231
MOLT-4 = system: MOLT-4
NCI-H460 = system: NCI-H460
OVCAR-3 = system: OVCAR-3
OVCAR-5 = system: OVCAR-5
OVCAR-8 = system: OVCAR-8
SF-268 = system: SF-268
SK-MEL-5 = system: SK-MEL-5
SN12C = system: SN12C
SNB-19 = system: SNB-19
SNB-75 = system: SNB-75
SW-620 = system: SW-620

Measured: GI50

O=c1oc2ccccc2cc1-c1ccc([N+](=O)[O-])cc1
inactive: BT-549 16.5 µM | HCC 2998 > 100 µM | HOP-92 > 100 µM | Hs-578T 99.5 µM | IGROV-1 > 100 µM | KM12 > 100 µM | LOX IMVI > 100 µM | MDA-MB-231 > 100 µM | MOLT-4 > 100 µM | NCI-H460 14.6 µM | OVCAR-3 > 100 µM | OVCAR-5 > 100 µM | OVCAR-8 54 µM | SF-268 24.8 µM | SK-MEL-5 53 µM | SN12C > 100 µM | SNB-19 14.7 µM | SNB-75 > 100 µM | SW-620 25.8 µM

O=C(O)c1[nH]c(=O)[nH]c(=O)c1CN1CCCCC1
inactive: BT-549 > 100 µM | HCC 2998 > 100 µM | HOP-92 > 100 µM | Hs-578T > 100 µM | IGROV-1 > 100 µM | KM12 > 100 µM | LOX IMVI > 100 µM | MDA-MB-231 > 100 µM | NCI-H460 > 100 µM | OVCAR-3 > 100 µM | OVCAR-5 > 100 µM | OVCAR-8 > 100 µM | SF-268 > 100 µM | SK-MEL-5 > 100 µM | SN12C > 100 µM | SNB-19 > 100 µM | SNB-75 > 100 µM | SW-620 > 100 µM

CC1=NN(C(=O)CC(=O)Nc2cccc(C)c2)C(=O)C1/N=N/c1ccc(C(=O)O)cc1 (centres undefined)
inactive: BT-549 > 100 µM | HCC 2998 > 100 µM | HOP-92 34.9 µM | Hs-578T > 100 µM | IGROV-1 > 100 µM | KM12 > 100 µM | LOX IMVI > 100 µM | MDA-MB-231 > 100 µM | OVCAR-3 > 100 µM | OVCAR-5 > 100 µM | OVCAR-8 > 100 µM | SF-268 > 100 µM | SK-MEL-5 > 100 µM | SN12C > 100 µM | SNB-19 > 100 µM | SNB-75 69.2 µM | SW-620 > 100 µM

N#CC1(C#N)NC(c2ccccc2)C(C#N)(C#N)NC1c1ccccc1 (centres undefined)
inactive: BT-549 > 100 µM | HCC 2998 > 100 µM | HOP-92 86.7 µM | Hs-578T > 100 µM | IGROV-1 > 100 µM | KM12 > 100 µM | LOX IMVI > 100 µM | MDA-MB-231 25.9 µM | MOLT-4 > 100 µM | NCI-H460 > 100 µM | OVCAR-3 > 100 µM | OVCAR-5 > 100 µM | OVCAR-8 > 100 µM | SF-268 > 100 µM | SK-MEL-5 > 100 µM | SN12C > 100 µM | SNB-19 > 100 µM | SNB-75 > 100 µM | SW-620 > 100 µM

COc1ccc(/C(C)=N/NC(=S)N(C)C)c(O)c1
inactive: BT-549 18.9 µM | HCC 2998 24.6 µM | HOP-92 29.5 µM | Hs-578T 53.1 µM | IGROV-1 4.31 µM | KM12 4.92 µM | LOX IMVI 2.42 µM | MDA-MB-231 5.96 µM | MOLT-4 4.57 µM | NCI-H460 14 µM | OVCAR-3 4.85 µM | OVCAR-5 3.42 µM | SF-268 12 µM | SK-MEL-5 12.1 µM | SN12C 11.7 µM | SNB-19 22 µM | SNB-75 43.8 µM | SW-620 5.28 µM

c1ccc(C(NC2CCCCC2NCCNC2CCCCC2NC(c2ccccc2)(c2ccccc2)c2ccccc2)(c2ccccc2)c2ccccc2)cc1 (centres undefined)
inactive: BT-549 17.5 µM | HCC 2998 > 10 µM | HOP-92 13.9 µM | Hs-578T 11.7 µM | IGROV-1 26.8 µM | KM12 57.1 µM | LOX IMVI 19 µM | MDA-MB-231 > 100 µM | MOLT-4 47.8 µM | NCI-H460 26.8 µM | OVCAR-3 39.5 µM | OVCAR-5 > 100 µM | OVCAR-8 29.9 µM | SF-268 21.3 µM | SK-MEL-5 39.5 µM | SN12C > 100 µM | SNB-19 74.6 µM | SW-620 22.6 µM

CC1(C)OC[C@@H]([C@@]2(COC(c3ccccc3)(c3ccccc3)c3ccccc3)CC=CC(=O)O2)O1
inactive: BT-549 24.2 µM | HCC 2998 19 µM | HOP-92 19.4 µM | Hs-578T 46.9 µM | KM12 27.9 µM | LOX IMVI 32.4 µM | MDA-MB-231 41.7 µM | MOLT-4 28.3 µM | NCI-H460 32.1 µM | OVCAR-3 35.2 µM | OVCAR-5 42.9 µM | OVCAR-8 33.6 µM | SF-268 45.5 µM | SN12C 30.8 µM | SNB-19 58.3 µM | SNB-75 14.2 µM | SW-620 40.1 µM

N#C/C(=C\c1ccc(F)cc1)c1nc(-c2cc3ccccc3oc2=O)cs1
inactive: BT-549 12.3 µM | HCC 2998 37.7 µM | HOP-92 10.3 µM | Hs-578T 15.1 µM | IGROV-1 22.6 µM | KM12 59 µM | LOX IMVI 87.7 µM | MDA-MB-231 12.7 µM | MOLT-4 > 100 µM | NCI-H460 33.5 µM | OVCAR-5 > 100 µM | OVCAR-8 21.3 µM | SF-268 16.5 µM | SK-MEL-5 15.3 µM | SN12C 74 µM | SNB-19 11.8 µM | SNB-75 7.01 µM | SW-620 40.4 µM

Cc1cc(C)c2c(c1)C(=O)C1(C2)Cc2c(ccc(C)c2C)C1=O (centres undefined)
inactive: BT-549 > 100 µM | HCC 2998 > 100 µM | HOP-92 > 100 µM | Hs-578T > 100 µM | IGROV-1 > 100 µM | KM12 > 100 µM | LOX IMVI > 100 µM | MDA-MB-231 > 100 µM | MOLT-4 > 100 µM | NCI-H460 > 100 µM | OVCAR-3 14.3 µM | OVCAR-8 > 100 µM | SF-268 > 100 µM | SK-MEL-5 > 100 µM | SN12C > 100 µM | SNB-19 > 100 µM | SNB-75 > 100 µM | SW-620 > 100 µM

O=C(O)C(F)(F)C(F)(F)C(F)(F)C(F)(F)C(=O)O
inactive: BT-549 > 100 µM | HCC 2998 > 100 µM | HOP-92 > 100 µM | Hs-578T > 100 µM | IGROV-1 > 100 µM | KM12 > 100 µM | LOX IMVI > 100 µM | MDA-MB-231 > 100 µM | NCI-H460 > 100 µM | OVCAR-3 > 100 µM | OVCAR-5 > 100 µM | OVCAR-8 > 100 µM | SF-268 > 100 µM | SK-MEL-5 > 100 µM | SN12C > 100 µM | SNB-19 > 100 µM | SNB-75 > 100 µM | SW-620 > 100 µM

c1cc(C[S+]2CCCC2)sc1C[S+]1CCCC1
inactive: BT-549 > 100 µM | HCC 2998 > 100 µM | HOP-92 > 100 µM | Hs-578T > 100 µM | IGROV-1 > 100 µM | KM12 > 100 µM | LOX IMVI > 100 µM | MDA-MB-231 > 100 µM | MOLT-4 > 100 µM | NCI-H460 > 100 µM | OVCAR-3 > 100 µM | OVCAR-5 > 100 µM | OVCAR-8 > 100 µM | SF-268 > 100 µM | SK-MEL-5 > 100 µM | SN12C > 100 µM | SNB-19 > 100 µM | SNB-75 > 100 µM | SW-620 > 100 µM
